Experimental data taken from ChEMBL document CHEMBL1201862, “PubChem BioAssay data set” (2004).
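Where inhibition never reached the appropriate level, the endpoint shown equals the highest concentration tested. Otherwise, values were interpolated linearly from a five-concentration, 48-hour dose response in 96-well plates. GI50 is the concentration that inhibits growth by half.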 Calls of active or inactive are those of the source. Rule as the data show it: active = GI50 up to about 1.1 µM and inactive = higher.

Key:
Experiment in all cases: growth of human tumour cells (NCI), 48 h
MDA-N = system: MDA-N
NCI-H226 = system: NCI-H226
SF-268 = system: SF-268
OVCAR-3 = system: OVCAR-3
SK-MEL-28 = system: SK-MEL-28
K562 = system: K562
A498 = system: A498
SW-620 = system: SW-620
TK-10 = system: TK-10
HL-60 = system: HL-60
SK-MEL-2 = system: SK-MEL-2
CAKI-1 = system: CAKI-1
SF-295 = system: SF-295
MDA-MB-231 = system: MDA-MB-231
EKVX = system: EKVX
MDA-MB-435 = system: MDA-MB-435
786-0 = system: 786-0
SN12C = system: SN12C
SNB-19 = system: SNB-19
HCC 2998 = system: HCC 2998

Row | SMILES | GI50 (MDA-N) | GI50 (NCI-H226) | GI50 (SF-268) | GI50 (OVCAR-3) | GI50 (SK-MEL-28) | GI50 (K562) | GI50 (A498) | GI50 (SW-620) | GI50 (TK-10) | GI50 (HL-60) | GI50 (SK-MEL-2) | GI50 (CAKI-1) | GI50 (SF-295) | GI50 (MDA-MB-231) | GI50 (EKVX) | GI50 (MDA-MB-435) | GI50 (786-0) | GI50 (SN12C) | GI50 (SNB-19) | GI50 (HCC 2998)
1 | CSc1nc2cc(S(=O)(=O)N3CCCCC3)ccc2s1 | > 100 µM (inactive) | > 100 µM (inactive) | > 100 µM (inactive) | > 100 µM (inactive) | > 100 µM (inactive) | > 100 µM (inactive) | > 100 µM (inactive) | > 100 µM (inactive) | > 100 µM (inactive) | > 100 µM (inactive) | > 100 µM (inactive) | > 100 µM (inactive) | 28 µM (inactive) | > 100 µM (inactive) | 41.3 µM (inactive) | > 100 µM (inactive) | > 100 µM (inactive) | > 100 µM (inactive) | > 100 µM (inactive) | –
2 | C[C@]12CC[C@H]3[C@@H](CCC4=C(Br)C(=O)C=C[C@@]43O)[C@@H]1CCC2=O | 30.6 µM (inactive) | > 100 µM (inactive) | 45.7 µM (inactive) | 45.4 µM (inactive) | 94.2 µM (inactive) | 32.7 µM (inactive) | 49.2 µM (inactive) | 26.8 µM (inactive) | 36.6 µM (inactive) | 21.2 µM (inactive) | 40.9 µM (inactive) | 31.6 µM (inactive) | 74.1 µM (inactive) | 82 µM (inactive) | 61.2 µM (inactive) | 33.7 µM (inactive) | 24.9 µM (inactive) | 33.7 µM (inactive) | 61 µM (inactive) | –
3 | CC(=O)O[C@H]1C(=O)[C@]2(C)[C@@H](OC(=O)OCCC(O)CO)C[C@H]3OC[C@@]3(OC(C)=O)[C@H]2[C@H](OC(=O)c2ccccc2)[C@]2(O)C[C@H](OC(=O)[C@H](O)[C@@H](NC(=O)c3ccccc3)c3ccccc3)C(C)=C1C2(C)C (stereo partly specified) | < 0.01 µM (active) | < 0.0228 µM (active) | < 0.0171 µM (active) | < 0.01 µM (active) | – | < 0.01 µM (active) | 0.783 µM (active) | < 0.0251 µM (active) | 2.4 µM (inactive) | < 0.01 µM (active) | 0.0265 µM (active) | 2.26 µM (inactive) | 0.193 µM (active) | 0.0288 µM (active) | 0.121 µM (active) | < 0.01 µM (active) | 0.08 µM (active) | < 0.0166 µM (active) | 0.0445 µM (active) | < 0.01 µM (active)
4 | COC(=O)c1c2c(cc3c1CC1(Cc4cc5c(c(C=O)c4C1)CCC5)C3)CCC2 (stereo unspecified) | 34 µM (inactive) | – | 50.7 µM (inactive) | 23.3 µM (inactive) | 52.5 µM (inactive) | 13.4 µM (inactive) | 33.6 µM (inactive) | 53.2 µM (inactive) | 98.4 µM (inactive) | 25.8 µM (inactive) | 23.8 µM (inactive) | > 100 µM (inactive) | 41.4 µM (inactive) | 28.4 µM (inactive) | 62.1 µM (inactive) | 17.7 µM (inactive) | 29.4 µM (inactive) | – | 44.7 µM (inactive) | 24.7 µM (inactive)
5 | CC(=O)/C(=C\c1ccc(Cl)c(Cl)c1)C(=O)C(C)CN(C)C (stereo unspecified) | 3.62 µM (inactive) | 2.39 µM (inactive) | 3.62 µM (inactive) | 4.1 µM (inactive) | 6.89 µM (inactive) | – | 2.96 µM (inactive) | 2.69 µM (inactive) | 1.94 µM (inactive) | 2 µM (inactive) | – | 4.48 µM (inactive) | 4.32 µM (inactive) | 11.5 µM (inactive) | 14.2 µM (inactive) | 3.24 µM (inactive) | 2.39 µM (inactive) | 6.73 µM (inactive) | 1.8 µM (inactive) | 2.39 µM (inactive)
6 | CC1CC(NN)=Nc2ccccc2N1 (stereo unspecified) | > 100 µM (inactive) | > 100 µM (inactive) | > 100 µM (inactive) | > 100 µM (inactive) | > 100 µM (inactive) | 49.2 µM (inactive) | > 100 µM (inactive) | > 100 µM (inactive) | > 100 µM (inactive) | 60.3 µM (inactive) | > 100 µM (inactive) | > 100 µM (inactive) | > 100 µM (inactive) | > 100 µM (inactive) | > 100 µM (inactive) | > 100 µM (inactive) | > 100 µM (inactive) | > 100 µM (inactive) | > 100 µM (inactive) | –
7 | CNC(=O)CCC(NC(=O)OC(C)(C)C)C(=O)NC(Cc1ccc(NC(=O)CCCCC(C)=O)cc1)C(=O)NCC(=O)NC (stereo unspecified) | > 100 µM (inactive) | > 100 µM (inactive) | > 100 µM (inactive) | > 100 µM (inactive) | > 100 µM (inactive) | > 100 µM (inactive) | > 100 µM (inactive) | > 100 µM (inactive) | > 100 µM (inactive) | > 100 µM (inactive) | – | > 100 µM (inactive) | > 100 µM (inactive) | > 100 µM (inactive) | > 100 µM (inactive) | > 100 µM (inactive) | > 100 µM (inactive) | > 100 µM (inactive) | > 100 µM (inactive) | > 100 µM (inactive)
